# From patent US4118507A, “Benzodioxincarboxamide lipogenesis inhibitors” (Shell Oil Company, priority 1977, dated 1978)
# Assays:
# [1] = test system: lipogenesis in swine adipose tissue; assay: percent inhibition of lipogenesis from radioactive glucose in pig (swine) adipose tissue slices; type: cell-based; conditions: 100 micrograms per milliliter, 37° C., 2 hours
# Source text: (§1) The manner in which they cause this effect is not known with certainty; it is believed that they interfere with the synthesis of fatty acids in the tissues. Their effectiveness for this purpose has been ascertained by immersing samples of mammalian liver or adipose tissue in a liquid medium containing radioactive glucose and the test chemical for a period of time, then isolating the lipid from the treated tissue and determining the up-take of the radioactive carbon by means of scintillation counting techniques. These tests were conducted with both liver and adipose tissues, because in some animals the primary site of lipogenesis appears to be liver tissue, while in others it appears to be adipose tissue. The test animals were pigs, sheep, rabbits, cats and dogs.
# Described in more detail, the tests were conducted according to the following general procedure:
# Tissue slices (200 milligrams for liver; 150 milligrams for adipose tissue) were incubated, at 37° C. for 2 hours with shaking in 3 milliliters of Krebs-Ringer bicarbonate solution containing one-half the normal calcium ion concentration, 60 micromoles of glucose, 0.5 micro-Curie of glucose-U-^14 C, 300 microunits of insulin, and 5% dimethyl sulfoxide (DMSO). The test compounds were added as a solution or suspension in DMSO and were present at a concentration of 100 micrograms per milliliter of the incubation mixture.
# The incubation was terminated by addition of 0.25 milliliter of 1 N sulfuric acid. The resulting mixture was extracted with a total of 25 milliliters of chloroform:methanol (2:1, v/v). The extracts were washed according to Folch et al. (J. Biol. Chem., 226, 497-509, (1957)), air dried, and counted in a liquid scintillation counter with 15 milliliters of counting fluid (two parts toluene containing 0.4% w/v New England Nuclear Omnifluor: 1 part Triton X-100). The tests were conducted in triplicate and were accompanied by control tests in which all ingredients,proportions and conditions were the same except that no test compound was included. From the data obtained, the percent inhibition of lipid synthesis by the test compound was calculated in each case.
# Compound 1 was tested with respect to all of the indicated animal species. The other three compounds were tested only with respect to the pig.
# From these and other tests, it has been established that in pigs there is little lipogenic activity in the liver tissue. From these and other tests, it also has been established that swine adipose tissue utilizes glucose for lipogenesis, and to be the major site of fatty acid synthesis. The data obtained from the tests using adipose tissue and glucose are set out in Table 1, as the percent inhibition of lipogenesis compared to the results obtained in the control tests wherein only the test compound was omitted.
# [2] = test system: swine adipose tissue lipid synthesis; assay: in vivo inhibition of swine adipose tissue lipid synthesis (oral dosing in feed, lipogenesis in biopsy slices); conditions: pigs, approximately 25 milligrams per kilogram per day in feed for seven days
# Procedure: Compound 1 also was tested to determine the in vivo inhibition of swine adipose tissue lipid synthesis, as follows: pigs weighing about 20 kilograms were administered a fixed drug dose of approximately 25 milligrams of drug per kilogram of animal body weight per day for seven consecutive days. The drug was formulated to contain 10% w active ingredient and was prepared as coarse granules using 4% w plasdene as the granulating agent and lactose as the carrier. […] The daily drug or placebo dose was added to 1.2 kilograms of swine ration; about one-third of the total was fed at 0800, 1200, and 1600 hours. Biopsy samples were obtained from the dorsal subcutaneous adipose tissue (ca. 1 gram) in the neck region before drug administration, after 7 days of drug administration, and 6 days after withdrawal of drug. Adipose tissue slices were prepared from the biopsy sample, and in vitro lipogenesis was determined with radioactive glucose as substrate. The incubation was similar to that previously described except there was no DMSO or test compound in the flasks.
# [3] = test system: glucose incorporation into liver; assay: inhibition of glucose incorporation into rabbit liver tissue slices; type: cell-based, rabbits; conditions: 100 micrograms per milliliter, 37° C., 2 hours
# Source text: as §1
# (§2) Described in more detail, the tests were conducted according to the following general procedure: […]
# (§3) The incubation was terminated by addition of 0.25 milliliter of 1 N sulfuric acid. […] The extracts were washed according to Folch et al. (J. Biol. Chem., 226, 497-509, (1957)), air dried, and counted in a liquid scintillation counter with 15 milliliters of counting fluid (two parts toluene containing 0.4% w/v New England Nuclear Omnifluor: 1 part Triton X-100). […] From the data obtained, the percent inhibition of lipid synthesis by the test compound was calculated in each case. […]
# [4] = test system: glucose incorporation into adipose tissue; assay: inhibition of glucose incorporation into rabbit adipose tissue slices; type: cell-based, rabbits; conditions: 100 micrograms per milliliter, 37° C., 2 hours
# Source text: as §1, §2, §3
# [5] = test system: lipogenesis from glucose in adipose tissue; assay: inhibition of lipogenesis from glucose in dog adipose tissue slices; type: cell-based, dogs; conditions: 100 micrograms per milliliter, 37° C., 2 hours
# Source text: as §1, §2, §3
# [6] = test system: lipogenesis from glucose in the liver; assay: inhibition of lipogenesis from glucose in cat liver tissue slices; type: cell-based, cats; conditions: 100 micrograms per milliliter, 37° C., 2 hours
# Source text: as §1, §2, §3
# [7] = test system: glucose utilization in adipose tissue; assay: inhibition of glucose utilization in cat adipose tissue slices; type: cell-based, cats; conditions: 100 micrograms per milliliter, 37° C., 2 hours
# Source text: as §1, §2, §3
# [8] = test system: glucose incorporation in adipose tissue; assay: inhibition of glucose incorporation into lipids in sheep adipose tissue slices; type: cell-based; conditions: 100 micrograms per milliliter, 37° C., 2 hours
# Source text: as §1, §2, §3
# [9] = test system: glucose incorporation in the liver; assay: inhibition of glucose incorporation into lipids in sheep liver tissue slices; type: cell-based; conditions: 100 micrograms per milliliter, 37° C., 2 hours
# Source text: as §1, §2, §3
compound,measurement,setting,value
"C=CCNC(=O)[C@@H]1Oc2ccccc2O[C@@H]1C (relative stereo) [Compound 4, 2,3-dihydro-3-methyl-N-(2-propenyl)-1,4-benzodioxin-2-carboxamide cis isomer]",Percent Inhibition of lipogenesis compared to control,[1],68%
"C=CCNC(=O)C1COc2ccccc2O1 (centres unmarked) [Compound 1, 2,3-dihydro-N-(2-propenyl)-1,4-benzodioxin-2-carboxamide]","effect on lipogenic rate at day 13, compared to control animals",[2]; biopsy 6 days after withdrawal,had significantly reduced the lipogenic rate at day 13
same,"effect on lipogenesis at day 7, compared to control animals",[2]; biopsy after 7 days of administration,had not significantly affected lipogenesis at day 7
same,inhibition of glucose incorporation into liver,[3],32%
same,inhibition of glucose incorporation into adipose tissue,[4],30%
same,inhibition of lipogenesis from glucose in adipose tissue,[5],54%
same,inhibition of lipogenesis from glucose in the liver,[6],35%
same,inhibition of glucose utilization in adipose tissue,[7],did not inhibit glucose utilization in adipose tissue
same,Percent Inhibition of lipogenesis compared to control,[1],75%
same,inhibition of glucose incorporation in adipose tissue,[8],50%
same,inhibition of glucose incorporation in the liver,[9],27%
"C=CCNC(=O)C1(C)COc2ccccc2O1 (centres unmarked) [Compound 2, 2,3-dihydro-N-(2-propenyl)-2-methyl-1,4-benzodioxin-2-carboxamide]",Percent Inhibition of lipogenesis compared to control,[1],41%
"C=CCNC(=O)C1COc2cc(Cl)ccc2O1 (centres unmarked) [Compound 3A, 6-chloro-2,3-dihydro-N-(2-propenyl)-1,4-benzodioxin-2-carboxamide]",Percent Inhibition of lipogenesis compared to control,[1],38%
"C=CCNC(=O)C1COc2cc(C(C)(C)C)ccc2O1 (centres unmarked) [Compound 5, 6-(1,1-dimethylethyl)-2,3-dihydro-N-(2-propenyl)-1,4-benzodioxin-2-carboxamide]",Percent Inhibition of lipogenesis compared to control,[1],36%
"C=CCNC(=O)C1COc2cc(C)ccc2O1 (centres unmarked) [Compound 6, 2,3-dihydro-6-methyl-N-(2-propenyl)-1,4-benzodioxin-2-carboxamide]",Percent Inhibition of lipogenesis compared to control,[1],80%
C=CCNC(=O)C1COc2ccc(C)cc2O1 (centres unmarked) [Compound 7],Percent Inhibition of lipogenesis compared to control,[1],55%
"C=CCNC(=O)C1COc2ccc(F)cc2O1 (centres unmarked) [Compound 8, 7-fluoro-2,3-dihydro-N-(2-propenyl)-1,4-benzodioxin-2-carboxamides]",Percent Inhibition of lipogenesis compared to control,[1],72%
